# Laboratory results taken from patent US20260092085A1, “SYNTHETIC TRIPLEX PEPTIDE NUCLEIC ACID-BASED INHIBITORS FOR CANCER THERAPY” (University of Connecticut, priority 2022, published 2026).
# Key:
# [1] = test system: SUDHL-2 cells; test: Cell viability by trypan blue assay, SUDHL-2; assay type: cell-based; details: SUDHL-2, in comparison to PBS treated control cells
# Protocol: (§1) Cell viability was performed using trypan blue-based assay (n=3 technical triplicate), data represented as mean±(SEM), * represents the statistical analysis were performed relative to Scr-γtcPNA-155 and ♦ represent analysis performed relative to PNA-155. *p<0.05, **p<0.01, ***p<0.001 and ****p<0.0001, ♦p<0.05, ♦♦p<0.01, unpaired two-tailed t-test was used for statistical analysis. The experiment was repeated three times and in triplicate.
# (§2) Cell viability was performed using trypan blue-based assay (n=3), data represented as mean±standard error mean (SEM), *p<0.05, **p<0.01. Unpaired two-tailed t-test was used for statistical analysis.
# (§3) Cell viability was performed using trypan blue-based assay (n=3), data represented as mean±standard error mean (SEM).
# (§4) Cell viability by trypan blue assay: Diffused large B cell lymphoma (DLBCL) cell lines like SUDHL-2 (ATCC® CRL-2956™) and SUDHL-5 (ATCC® CRL-2958™) cells were purchased from ATCC (Virginia, USA). The cells were regularly tested for Mycoplasma contamination using MycoAlert™ Mycoplasma detection kit (Lonza). All the cells used in the experiment were passaged less than 8 times. 10,000 U2932, SUDHL-5, or SUDHL-2 cells were plated in a 96 well plate. The cells were treated with different doses (500 nM, 1000 nM, 2000 nM and 4000 nM) of PNA-155, gamma tcPNA-155 or Scr-γtcPNA-155 for 48 hrs in an incubator (37° C. and 5% CO2). The dead cells were marked with trypan blue. Further counting was performed using an automated cell counter (Bio-rad).
# [2] = test system: miR-155 downstream genes; test: Downstream gene expression and protein levels in U2932 tumor samples; assay type: in vivo, NSG mice; details: U2932 xenograft
# Protocol: (§5) FIGS. 22A-D show in vivo gene expression and protein level analysis. (22A) miR-155 gene expression levels in U2932 tumor samples after in vivo treatment with indicated PNAs. Data was normalized with average control U6 (n=4, data represented as mean±standard error mean). ***p<0.001 (22B) Gene expression level of downstream target genes of miR-155: MCL1 in U2932 tumor samples after treatment with total 3 mg kg-1 dose of Scr-γtcPNA-155, PNA-155, γPNA-155 and γtcPNA-155 and normalized with average control GAPDH (n=3, data represented as mean±SEM), unpaired two-tailed t-test was performed for analysis). *p<0.05, **p<0.01 (22C) Representative western blot of Mcl-1 protein and its quantification (n=3 technical replicate) in U2932 tumor samples treated with total 3 mg kg-1 dose of Scr-γtcPNA-155, PNA-155 and γtcPNA-155. Data is represented as mean±SEM and unpaired two-tailed t-test was performed for analysis. *p<0.05. The relative protein levels were determined from the band intensity using ImageJ software and normalized relative to loading control and treatment control. (22D) Gene expression level of tumor suppressor proteins (FOXO3A, CUX1, SOCS1, CSF1R, JARID2, SHIP1, PICALM, PDCD4, BACH1, CASP3) in U2932 tumor samples after treatment with total 3 mg kg-1 dose of Scr-γtcPNA-155, PNA-155, γPNA-155 and γtcPNA-155 and normalized with average control GAPDH (n=3, data represented as mean±SEM, unpaired two-tailed t-test was performed for statistical analysis). *p<0.05, **p<0.01.
# Data is represented as mean±SEM and unpaired t-test was used for statistical analysis *p<0.05. The relative protein levels were determined from the band intensity using ImageJ software and normalized relative to loading control and treatment control.
# Data is represented as mean±SEM and unpaired t-test was used for statistical analysis.
# Data is represented as mean±SEM and unpaired t-test was used for statistical analysis. The relative protein levels were determined from the band intensity using ImageJ software and normalized relative to loading control and treatment control.
# (§6) RNA and Protein extraction from tumor samples: The mice were injected intra-tumorally with 1 mg kg-1 dose of PNA-155, γtcPNA-155, γPNA-155, Scr-γtcPNA-155 or were untreated. The injections were repeated two additional times after 1 week each. The length, breadth, and depth of the tumors were measured daily using a vernier caliper. The mice were euthanized when the tumor volumes reached 2000 mm^3. The resected tumor sections were finely minced using a sterile blade and suspended in dissociation media (4 ml) comprising of RPMI-1640, 1.2 mg/ml dispase, and 0.5 mg/ml collagenase for 90 mins at 500 rpm at 37° C. The dissociated tumors were washed with buffer saline at 2500 rpm (4 mins) at 4° C. and then suspended in 0.25% trypsin for 4 mins at room temperature. RPMI 1640 media was added to the trypsinized tumor mass, and the cells were passed through a 70 um filter. The cells were centrifuged at 2500 rpm for 4 mins at 4° C. The cell pellet was then suspended in 1×RBC lysis buffer (Sigma) and incubated on ice for 10 mins. PBS was added to the cells and the cells were passed through a 40 um filter. The cells were centrifuged at 2500 rpm for 4 mins at 4° C. The cell pellet was resuspended in 0.5% BSA in PBS. The mouse cells were removed from the tumor cells using a mouse cell depletion kit (Miltenyi Biotec) according to the manufacturer's protocol. The enriched tumor cells from each tumor sample were divided into two fractions. RNA for gene expression analysis was extracted from one tumor fraction by the same procedure as mentioned earlier. The protein for western blot analysis was extracted from the second fraction using the method described above.
# [3] = test system: U2932 cells; test: Cell viability by trypan blue assay, U2932; assay type: cell-based, human; details: U2932, in comparison to PBS treated control cells
# Protocol: as §1, §2, §3, §4
# [4] = test system: miR-155; test: miR-155 gene expression in U2932 tumor samples after in vivo treatment; parameters: species or system NSG mice; details: U2932 xenograft
# Protocol: as §5
# as §6, with “The mouse cells were removed from the tumor cells using a mouse cell depletion kit (Miltenyi Biotec) according to the manufacturer's protocol. The enriched tumor cells from each tumor sample were divided into two fractions. RNA for gene expression analysis was extracted from one tumor fraction by the same procedure as mentioned earlier. The protein for western blot analysis was extracted from the second fraction using the method described above.” left out
# [5] = test system: PBMC cells; test: Safety assessment by trypan blue assay in PBMC; assay type: cell-based; details: 500-4000 nM, 48 hours
# Protocol: Control is PBS treated PBMC cells. n=3, data represented as mean±standard error mean (SEM).
# Safety assessment by trypan blue assay […] blood mononuclear cells (PBMC) (ATCC® PCS-800-011™) were purchased from ATCC (Virginia, USA). The cells were regularly tested for Mycoplasma contamination using MycoAlert™ Mycoplasma detection kit (Lonza). All the cells used in the experiment were passaged less than 2 times. 10,000 PBMC cells were seeded in a 96 well plate. The cells were treated with 500 nM, 1000 nM, 2000 nM and 4000 nM PNA-155 and γtcPNA-155 for 48 hrs in an incubator. The dead cells were examined with trypan blue and further counted using an automated cell counter (Bio-rad).
# [6] = test system: U2932 subcutaneous tumors; test: Tumor growth in U2932 derived xenograft model; assay type: in vivo, NSG mice; details: intra-tumoral injections days 0, 7, 14
# Protocol: Mouse tumor xenograft: Female NSG mice (NOD.Cg-Prkdcscid Il2rgtm1Wjl/SzJ, strain 005557) weighing 20-23 g were procured from Jackson laboratories. 1×10^7 U2932 cells suspended in RPMI-1640 medium were injected subcutaneously in the right and left flank of 6-week-old NSG mice. The mice developed a small bump in 2 weeks. When the tumor volume reached 100-200 mm^3, the mice were randomly assigned to the treatment group (n=6 per group).
# as §6
# For the efficacy study, each mouse received three intra-tumoral injections of either γtcPNA-155, γPNA-155 or PNA-155 on days 0, 7, 14. We noticed that the control and scrambled treated tumors reached 2000 mm^3 much faster during our study, so we could not inject a third time in these mice. […] In contrast, as stated earlier, there was no effect on the control and scrambled PNA control on the tumor volume.
# [7] = test system: SUDHL-5 cells; test: Cell viability by trypan blue assay, SUDHL-5; assay type: cell-based; details: SUDHL-5, in comparison to PBS treated control cells
# Protocol: as §1, §2, §3, §4
substance,measurement,setting,value
"Scr-γtcPNA-155: scrambled γtcPNA-155 synthesized as a control, SEQ ID NO: 4 (ACNTGCCATTNCACGAACNCT; gamma PNA backbone; scramble sequence; misc_feature 1 Arg-Arg-adenine-thymine-pseudoisocytosine-thymine -adenine-11-amino-3,6,9-trioxaundecanoic acid covalently linked to the backbone; modified_base 3 OTHER; n is pseudoisocytosine; modified_base 11 OTHER; misc_feature 21 Arg-Arg covalently linked to the backbone; modified_base 19 OTHER; modified_base 1..21 OTHER; peptid) [reference compound]",effect on cell viability,[1],did not notice any effect on cell viability
same,alteration in gene expression in tumors,[2],did not notice any alteration
same,Mcl-1 protein level in tumors,[2]; western blot,did not notice any alteration
same,effect on cell viability,[3],did not notice any effect on cell viability
same,miR-155 expression level in tumors (change),[4],did not observe a change
same,viability of PBMC cell lines,[5],do not cause any non-specific effects
same,tumor growth / tumor volume,[6],no effect
same,effect on cell viability,[7],did not notice any effect on cell viability
